Key:
[1] = system: Mucor miehei; assay: Growth test in microtiter plates, HA medium, 24 h, visual evaluation; assay type: cell-based; set-up: key to Aktivität gegenüber M. miehei: +: kein Wachstum im Vergleich zur Wachstumskontrolle; -: Wachstum wie Wachstumskontrolle
[2] = system: Botrytis cinerea; assay: microbe, parasite or virus in culture; assay type: cell-based; conditions: for inhibition of growth at 5 µg/mL / inhibition of growth at 10 µg/mL / inhibition of growth at 25 µg/mL / inhibition of growth at 50 µg/mL: Botrytis cinerea, 24 h, read-out: Aktivität gegenüber B. cinerea
[3] = system: Penicillium notatum; assay: Growth test in microtiter plates, HA medium, 24 h, visual evaluation; assay type: cell-based; set-up: key: +: kein Wachstum im Vergleich zur Wachstumskontrolle; -: Wachstum wie Wachstumskontrolle
[4] = system: M. grisea CM; assay: microbe, parasite or virus in culture; assay type: cell-based, Magnaporthe grisea; conditions: Pyricularia grisea, 24 h, read-out: Aktivität gegenüber M. grisea CM
[5] = system: Candida albicans; assay: Growth test in microtiter plates, HA medium, 24 h, visual evaluation; assay type: cell-based; set-up: key: +: kein Wachstum im Vergleich zur Wachstumskontrolle; -: Wachstum wie Wachstumskontrolle
[6] = system: alle getesteten Pathogene; assay type: cell-based; conditions: 5-50 µg/mL
[7] = system: Setaria italica; assay: Crop plant growth test, seeds on filter discs, 4 days, visual evaluation; assay type: in vivo
Description: (§1) Testsubstanzen und Kontrollen werden auf Filterrondellen in Mikrotiterplatten (48 well) vorgelegt und das verwendete Lösungsmittel (DMSO) über Lyophilisation entfernt. Anschließend werden ca. 12 Samen pro Vertiefung (Setaria italical Lepidium sativum) zugeben, mit 200 µl sterilem Leitungswasser pro Vertiefung versetzt, mit einem Deckel versehen und in einer feuchten Kammer für 4 Tage im Pflanzenbrutschrank inkubiert (16h-Licht-8h-Dunkel-Rhythmus). Die Auswertung des Tests erfolgt optisch (+: mind. 75 % Wachstumshemmung im Vergleich zur Kontrolle, -: weniger als 75 % Wachstumshemmung im Vergleich zur Kontrolle.

[8] = system: Lepidium sativum; assay: as above; assay type: in vivo
Description: as §1

[9] = system: M. grisea H2O; assay: microbe, parasite or virus in culture; assay type: cell-based, Magnaporthe grisea; conditions: Pyricularia grisea, H2O, 24 h, read-out: Aktivität gegenüber M. grisea H2O
[10] = system: Paecilomyces variotii; assay: Growth test in microtiter plates, HA medium, 24 h, visual evaluation; assay type: cell-based; set-up: key: +: kein Wachstum im Vergleich zur Wachstumskontrolle; -: Wachstum wie Wachstumskontrolle
[11] = system: P. infestans; assay: microbe, parasite or virus in culture; assay type: cell-based, Phytophthora infestans; conditions: Phytophthora infestans, 24 h, read-out: Aktivität gegenüber P. infestans

| SMILES | Aktivität gegenüber M. miehei ([1]; 10µg/mL) | Aktivität gegenüber M. miehei ([1]; 50µg/mL) | inhibition of growth at 5 µg/mL [2] [%] | inhibition of growth at 10 µg/mL [2] [%] | inhibition of growth at 25 µg/mL [2] [%] | inhibition of growth at 50 µg/mL [2] [%] | Aktivität gegenüber P. notatum ([3]; 10µg/mL) | Aktivität gegenüber P. notatum ([3]; 50µg/mL) | inhibition of growth at 5 µg/mL [4] [%] | inhibition of growth at 10 µg/mL [4] [%] | inhibition of growth at 25 µg/mL [4] [%] | inhibition of growth at 50 µg/mL [4] [%] | Aktivität gegenüber C. albicans ([5]; 10µg/mL) | Aktivität gegenüber C. albicans ([5]; 50µg/mL) | Aktivität im Wachstums- und Keimungshemmungstest gegen die getesteten Pathogene [6] | Aktivität gegenüber Nutzpflanzen: S. italica ([7]; 10µg/R) | Aktivität gegenüber Nutzpflanzen: S. italica ([7]; 20µg/R) | Aktivität gegenüber Nutzpflanzen: S. italica ([7]; 50µg/R) | Aktivität gegenüber Nutzpflanzen: L. sativum ([8]; 10µg/R) | Aktivität gegenüber Nutzpflanzen: L. sativum ([8]; 20µg/R) | further results |
| --- | --- | --- | --- | --- | --- | --- | --- | --- | --- | --- | --- | --- | --- | --- | --- | --- | --- | --- | --- | --- | --- |
| CCc1cc([Se]c2cc(CC)cc(C(C)(C)C)c2O)c(O)c(C(C)(C)C)c1 [Verbindung 15, Bis(3-tert-butyl-5-ethyl-2-hydroxyphenyl)selen] | - | - | 0 to 25 | 0 to 25 | 0 to 25 | 0 to 25 | - | - | 0 to 25 | 0 to 25 | 0 to 25 | 0 to 25 | - | - | weder im Wachstums- noch im Keimungshemmungstest im verwendeten Konzentrationsbereich eine entsprechende Aktivität | - (weniger als 75 % Wachstumshemmung im Vergleich zur Kontrolle) | - (weniger als 75 % Wachstumshemmung im Vergleich zur Kontrolle) | - (weniger als 75 % Wachstumshemmung im Vergleich zur Kontrolle) | - (weniger als 75 % Wachstumshemmung im Vergleich zur Kontrolle) | - (weniger als 75 % Wachstumshemmung im Vergleich zur Kontrolle) | Aktivität gegenüber Nutzpflanzen: L. sativum ([8]; 50µg/R): - (weniger als 75 % Wachstumshemmung im Vergleich zur Kontrolle); inhibition of growth at 5 µg/mL [9]: 0 to 25%; inhibition of growth at 10 µg/mL [9]: 0 to 25%; inhibition of growth at 25 µg/mL [9]: 0 to 25%; inhibition of growth at 50 µg/mL [9]: 0 to 25%; Aktivität gegenüber P. variotii ([10]; 10µg/mL): -; Aktivität gegenüber P. variotii ([10]; 50µg/mL): -; inhibition of growth at 5 µg/mL [11]: 0 to 25%; inhibition of growth at 10 µg/mL [11]: 0 to 25%; inhibition of growth at 25 µg/mL [11]: 0 to 25%; inhibition of growth at 50 µg/mL [11]: 0 to 25% |
| CCC(C)(C)c1cc([Se]c2cc(C(C)(C)CC)cc(C(C)(C)CC)c2O)c(O)c(C(C)(C)CC)c1 [Verbindung 16, Bis(3,5-di(1,1-dimethylpropyl)-2-hydroxyphenyl)selen] | - | - | 0 to 25 | 0 to 25 | 0 to 25 | 0 to 25 | - | - | 0 to 25 | 0 to 25 | 0 to 25 | 0 to 25 | - | - | weder im Wachstums- noch im Keimungshemmungstest im verwendeten Konzentrationsbereich eine entsprechende Aktivität | - (weniger als 75 % Wachstumshemmung im Vergleich zur Kontrolle) | - (weniger als 75 % Wachstumshemmung im Vergleich zur Kontrolle) | - (weniger als 75 % Wachstumshemmung im Vergleich zur Kontrolle) | - (weniger als 75 % Wachstumshemmung im Vergleich zur Kontrolle) | - (weniger als 75 % Wachstumshemmung im Vergleich zur Kontrolle) | Aktivität gegenüber Nutzpflanzen: L. sativum ([8]; 50µg/R): - (weniger als 75 % Wachstumshemmung im Vergleich zur Kontrolle); inhibition of growth at 5 µg/mL [9]: 0 to 25%; inhibition of growth at 10 µg/mL [9]: 0 to 25%; inhibition of growth at 25 µg/mL [9]: 0 to 25%; inhibition of growth at 50 µg/mL [9]: 0 to 25%; Aktivität gegenüber P. variotii ([10]; 10µg/mL): -; Aktivität gegenüber P. variotii ([10]; 50µg/mL): -; inhibition of growth at 5 µg/mL [11]: 0 to 25%; inhibition of growth at 10 µg/mL [11]: 0 to 25%; inhibition of growth at 25 µg/mL [11]: 0 to 25%; inhibition of growth at 50 µg/mL [11]: 0 to 25% |
| Cc1cc(C(C)C)c(O)c([Se]c2c(C)c(C)cc(C(C)C)c2O)c1C [Verbindung 18, Bis(5,6-dimethyl-2-hydroxy-3-isopropylphenyl)selen] | - | - | 0 to 25 | 0 to 25 | 0 to 25 | 0 to 25 | - | - | 0 to 25 | 0 to 25 | 0 to 25 | 0 to 25 | - | - | weder im Wachstums- noch im Keimungshemmungstest im verwendeten Konzentrationsbereich eine entsprechende Aktivität | - (weniger als 75 % Wachstumshemmung im Vergleich zur Kontrolle) | - (weniger als 75 % Wachstumshemmung im Vergleich zur Kontrolle) | - (weniger als 75 % Wachstumshemmung im Vergleich zur Kontrolle) | - (weniger als 75 % Wachstumshemmung im Vergleich zur Kontrolle) | - (weniger als 75 % Wachstumshemmung im Vergleich zur Kontrolle) | Aktivität gegenüber Nutzpflanzen: L. sativum ([8]; 50µg/R): - (weniger als 75 % Wachstumshemmung im Vergleich zur Kontrolle); inhibition of growth at 5 µg/mL [9]: 0 to 25%; inhibition of growth at 10 µg/mL [9]: 0 to 25%; inhibition of growth at 25 µg/mL [9]: 0 to 25%; inhibition of growth at 50 µg/mL [9]: 0 to 25%; Aktivität gegenüber P. variotii ([10]; 10µg/mL): -; Aktivität gegenüber P. variotii ([10]; 50µg/mL): -; inhibition of growth at 5 µg/mL [11]: 0 to 25%; inhibition of growth at 10 µg/mL [11]: 0 to 25%; inhibition of growth at 25 µg/mL [11]: 0 to 25%; inhibition of growth at 50 µg/mL [11]: 0 to 25% |
| Cc1cc([Se]c2cc(C)c(O)c(C)c2)cc(C)c1O [Verbindung 19, Bis(3,5-dimethyl-4-hydroxyphenyl)selen] | + | + | 25 to 50 | > 75 | > 75 | 0 to 25 | - | + | > 75 | > 75 | > 75 | > 75 | - | - | deutliche Aktivität gegenüber allen getesteten Pathogenen, mit Ausnahme von C. albicans | + (mind. 75 % Wachstumshemmung im Vergleich zur Kontrolle) | + (mind. 75 % Wachstumshemmung im Vergleich zur Kontrolle) | + (mind. 75 % Wachstumshemmung im Vergleich zur Kontrolle) | - (weniger als 75 % Wachstumshemmung im Vergleich zur Kontrolle) | - (weniger als 75 % Wachstumshemmung im Vergleich zur Kontrolle) | mikrobizide Wirksamkeit gegenüber B. cinerea [2]: mikrobizide Wirksamkeit; Effekt auf S. italica ([7]; […]): wachstumshemmenden Effekt; Aktivität gegenüber Nutzpflanzen: L. sativum ([8]; 50µg/R): - (weniger als 75 % Wachstumshemmung im Vergleich zur Kontrolle); inhibition of growth at 5 µg/mL [9]: > 75%; inhibition of growth at 10 µg/mL [9]: > 75%; inhibition of growth at 25 µg/mL [9]: > 75%; inhibition of growth at 50 µg/mL [9]: > 75%; Aktivität gegenüber P. variotii ([10]; 10µg/mL): -; Aktivität gegenüber P. variotii ([10]; 50µg/mL): -; inhibition of growth at 5 µg/mL [11]: 0 to 25%; inhibition of growth at 10 µg/mL [11]: 50 to 75%; inhibition of growth at 25 µg/mL [11]: 50 to 75%; inhibition of growth at 50 µg/mL [11]: 0 to 25% |

— patent EP3262942A1, “SELENODIARYLS FOR USE AS MICROBICIDE OR AS MEDICINE” (Evonik Degussa GmbH, priority 2016, dated 2018)
